Source: article PMC2826549 (Thrombosis research, 2009)

Legend:
Type in all cases: cell-based
P2X1 = biological target: T1, P2X1 (Homo sapiens, UniProt P51575); assay: FLUO-4 flow cytometry of extracellular Ca2+ entry in human platelets; conditions: read-out: Ap4A Agonist Activity
T1 sequence (P51575 1-399): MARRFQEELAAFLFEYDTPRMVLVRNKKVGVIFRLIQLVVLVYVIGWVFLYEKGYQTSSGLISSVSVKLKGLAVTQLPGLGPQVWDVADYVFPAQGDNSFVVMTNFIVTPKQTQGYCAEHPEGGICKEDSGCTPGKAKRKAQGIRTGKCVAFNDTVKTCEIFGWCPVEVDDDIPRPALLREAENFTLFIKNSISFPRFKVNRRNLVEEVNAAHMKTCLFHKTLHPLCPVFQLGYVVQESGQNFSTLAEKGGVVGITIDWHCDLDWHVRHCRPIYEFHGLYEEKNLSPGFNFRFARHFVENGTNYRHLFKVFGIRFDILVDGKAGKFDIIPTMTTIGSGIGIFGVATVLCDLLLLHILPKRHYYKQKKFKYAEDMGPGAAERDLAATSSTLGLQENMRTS

P2Y1 = P2Y1 (Homo sapiens, UniProt P47900); assay: inhibition of […] ADP-induced cytosolic Ca2+ increase in human platelets
Chain of P2Y1 (P47900 whole entry): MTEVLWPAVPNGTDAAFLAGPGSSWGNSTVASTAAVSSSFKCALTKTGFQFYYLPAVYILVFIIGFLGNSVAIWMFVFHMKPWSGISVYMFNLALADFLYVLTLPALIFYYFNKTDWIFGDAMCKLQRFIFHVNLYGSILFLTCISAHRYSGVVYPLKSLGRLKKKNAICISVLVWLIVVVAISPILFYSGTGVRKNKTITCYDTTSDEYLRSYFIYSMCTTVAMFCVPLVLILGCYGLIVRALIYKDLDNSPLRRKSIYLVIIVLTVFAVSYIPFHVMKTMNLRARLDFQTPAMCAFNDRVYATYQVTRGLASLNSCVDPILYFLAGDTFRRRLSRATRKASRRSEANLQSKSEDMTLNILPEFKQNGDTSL

P2Y12 = P2Y12 (Homo sapiens, UniProt Q9H244); assay: VASP phosphorylation flow cytometry in human whole blood platelets
Chain of P2Y12 (Q9H244 whole entry): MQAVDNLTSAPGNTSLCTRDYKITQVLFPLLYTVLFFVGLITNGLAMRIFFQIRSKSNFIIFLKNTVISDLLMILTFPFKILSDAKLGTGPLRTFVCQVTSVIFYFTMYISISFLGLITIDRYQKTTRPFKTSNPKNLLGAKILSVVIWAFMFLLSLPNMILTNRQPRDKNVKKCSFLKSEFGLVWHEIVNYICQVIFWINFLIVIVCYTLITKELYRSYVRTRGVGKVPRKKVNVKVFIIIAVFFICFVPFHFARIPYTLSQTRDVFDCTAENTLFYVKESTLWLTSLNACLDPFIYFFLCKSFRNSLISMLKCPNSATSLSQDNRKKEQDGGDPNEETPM

Q: Which EC50 (P2X1) does the source give for `Nc1ncnc2c1ncn2[C@@H]1O[C@H](COP(=O)(O)OP(=O)(O)OP(=O)(O)OP(=O)(O)OC[C@H]2O[C@@H](n3cnc4c(N)ncnc43)[C@H](O)[C@@H]2O)[C@@H](O)[C@H]1O` [Ap4A, Diadenosine 5',5"'-P^1,P^4-tetraphosphate] here?
A: ~0.3 µM

Q: And the IC50 (P2Y1)?
A: 40.8 ± 12.3 µM

Q: What about the IC50 (P2Y12) of the same compound?
A: > 250 µM
